According to patent US20240174649A1, “CULLIN-RING E3 UBIQUITIN LIGASE 4 INHIBITOR COMPOUNDS AND METHODS OF THEIR USE” (ICAHN SCHOOL OF MEDICINE AT MOUNT SINAI, priority 2021, published 2024):

Legend:
cancer cells = assay: Apoptosis, Annexin V flow cytometry; format: cell-based; conditions: Table 1
Procedure: Cells (5×10^4) were seeded 24 hours before compound treatment. Compound was added to the culture media and cells were cultured with the compound for 48 hours. The treated cells were then transferred into 5 ml flow cytometry tubes and the well was washed once with PBS to collect any remaining cells. The cells were then pelleted at 500×g for 5 min with a Beckman CS-6KR centrifuge at 4° C. After removal of supernatant, the cells pellet was washed with Annexin V binding buffer (10 mM Hepes-NaOH, pH 7.4, 150 mM NaCl, 5 mM KCl, 1 mM MgCl2, and 1.8 mM CaCl2). Cells were pelleted once again and incubated in the dark with Annexin V-FITC (2 μg/ml) in binding buffer for 5 min then analyzed using LSRFortessa flow cytometer (BD).

E3 (CUL4) = E3 (CUL4) (Homo sapiens (Human), UniProt Q13619); assay: E3 (CUL4) inhibition (Table 1); format: biochemical
Sequence of E3 (CUL4) (Q13619 whole entry): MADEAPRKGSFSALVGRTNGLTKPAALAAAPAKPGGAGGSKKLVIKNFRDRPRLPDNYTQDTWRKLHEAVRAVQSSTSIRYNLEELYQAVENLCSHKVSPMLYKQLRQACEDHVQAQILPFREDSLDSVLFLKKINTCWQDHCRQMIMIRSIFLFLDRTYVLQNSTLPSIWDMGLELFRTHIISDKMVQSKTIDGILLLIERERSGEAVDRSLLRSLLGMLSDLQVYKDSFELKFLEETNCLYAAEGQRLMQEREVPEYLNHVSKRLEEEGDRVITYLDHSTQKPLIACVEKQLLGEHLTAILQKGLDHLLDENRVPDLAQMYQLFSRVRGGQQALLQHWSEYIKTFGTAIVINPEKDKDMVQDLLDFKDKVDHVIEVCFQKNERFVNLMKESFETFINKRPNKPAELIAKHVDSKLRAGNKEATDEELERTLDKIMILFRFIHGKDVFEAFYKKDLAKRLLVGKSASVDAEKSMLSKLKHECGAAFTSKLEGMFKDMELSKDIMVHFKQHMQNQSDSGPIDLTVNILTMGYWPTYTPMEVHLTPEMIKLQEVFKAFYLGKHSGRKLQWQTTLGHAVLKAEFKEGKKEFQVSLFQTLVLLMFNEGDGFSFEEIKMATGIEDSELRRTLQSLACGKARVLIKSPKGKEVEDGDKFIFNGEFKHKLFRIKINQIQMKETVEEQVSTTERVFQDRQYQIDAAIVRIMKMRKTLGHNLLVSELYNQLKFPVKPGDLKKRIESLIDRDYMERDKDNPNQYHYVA
Sequence of E3 (CUL4) (P62877 whole entry partner): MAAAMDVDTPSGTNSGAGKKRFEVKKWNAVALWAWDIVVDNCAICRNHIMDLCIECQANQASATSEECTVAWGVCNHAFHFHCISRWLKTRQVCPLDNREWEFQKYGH
Procedure: The reaction was incubated for 5 min at 37° C. […] The reaction was incubated for 5 min at room temperature. In the second step (chase), the completed Cdc34b-Ub thiol ester reaction mixture was combined with one third of the completed mono-ubiquitination mixture. The final volume was adjusted to 10 μl with a mix that contained 50 mM Tris-HCl (pH 7.4), 0.5 mM DTT, 0.1 mg/ml of BSA, 5 mM MgCl2, and 2 mM ATP. Compounds were added where indicated. The chase reaction was incubated for 10 min at 37° C. The reaction products were separated by 4-20% SDS-polyacrylamide gel electrophoresis. The reaction scheme was identical to the one described above for FIGS. 12A-B. […] The reaction products, separated by SDS-PAGE, were visualized and analyzed by phospho-imaging using Typhoon 9500 scanner.

E3 (CUL1) = E3 (CUL1) (Homo sapiens (Human), UniProt Q13616); assay: E3 (CUL1) inhibition (Table 1); format: biochemical
Sequence of E3 (CUL1) (Q13616 whole entry): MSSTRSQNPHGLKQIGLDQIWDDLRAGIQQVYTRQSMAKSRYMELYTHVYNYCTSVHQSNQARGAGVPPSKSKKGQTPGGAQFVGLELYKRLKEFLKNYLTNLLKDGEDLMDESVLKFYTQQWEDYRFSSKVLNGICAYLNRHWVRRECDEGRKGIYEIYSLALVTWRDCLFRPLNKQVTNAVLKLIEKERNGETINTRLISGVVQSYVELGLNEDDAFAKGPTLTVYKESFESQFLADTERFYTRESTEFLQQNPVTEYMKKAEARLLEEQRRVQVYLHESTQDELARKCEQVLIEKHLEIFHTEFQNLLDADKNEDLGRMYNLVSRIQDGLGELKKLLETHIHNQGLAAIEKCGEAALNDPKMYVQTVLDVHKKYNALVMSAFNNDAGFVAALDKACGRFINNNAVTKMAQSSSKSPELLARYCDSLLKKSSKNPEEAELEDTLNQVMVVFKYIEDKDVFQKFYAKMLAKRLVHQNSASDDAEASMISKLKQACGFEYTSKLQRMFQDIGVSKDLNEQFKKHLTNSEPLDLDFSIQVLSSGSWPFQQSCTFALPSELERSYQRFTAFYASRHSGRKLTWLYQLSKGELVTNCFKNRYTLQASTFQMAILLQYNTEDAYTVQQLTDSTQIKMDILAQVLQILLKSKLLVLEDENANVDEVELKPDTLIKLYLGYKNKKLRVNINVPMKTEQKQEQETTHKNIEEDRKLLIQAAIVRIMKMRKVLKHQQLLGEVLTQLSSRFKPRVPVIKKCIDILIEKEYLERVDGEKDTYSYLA
Sequence of E3 (CUL1) (P62877 whole entry partner): as the sequence (P62877 whole entry partner) above
Procedure: The reaction mixture (15 μl) was assembled onto a 384-well microtiter plate. […] ATP (0.66 mM) was then added to the mix followed by a brief centrifugation to settle down the mixture. The resulting plate was incubated at 30° C. in the Synergy-H1 reader and the fluorescence signal was monitored. Ubiquitination was quantified based on the ratio of acceptor:donor fluorescence (excitation 515 nm; donor emission 570 nm, acceptor emission 670 nm).

Structure (SMILES) | EC50 (cancer cells) [µM] | EC50 (E3 (CUL4)) [µM] | EC50 (E3 (CUL1)) [µM]
O=c1c(-c2cnn(Cc3ccc(Cl)cc3)c2)c(C(F)(F)F)oc2c(O)c(O)ccc12 [MSSM-RJD-MM-006, 3-(1-(4-chlorobenzyl)-1H-pyrazol-4-yl)-7,8-dihydroxy-2-(trifluoromethyl)-4H-chromen-4-one] | > 20 | > 10 | 7.6
CCCCn1cc(-c2c(C(F)(F)F)oc3c(O)c(O)ccc3c2=O)cn1 [MSSM-RJD-MM-007, 3-(1-butyl-1H-pyrazol-4-yl)-7,8-dihydroxy-2-(trifluoromethyl)-4H-chromen-4-one] | > 20 | > 10 | 3.8
CCCn1cc(-c2c(C(F)(F)F)oc3c(O)c(O)ccc3c2=O)cn1 [MSSM-RJD-MM-008, 7,8-dihydroxy-3-(1-propyl-1H-pyrazol-4-yl)-2-(trifluoromethyl)-4H-chromen-4-one] | > 20 | > 10 | 4
CCn1cc(-c2c(C(F)(F)F)oc3c(O)c(O)ccc3c2=O)cn1 [MSSM-RJD-MM-009, 3-(1-ethyl-1H-pyrazol-4-yl)-7,8-dihydroxy-2-(trifluoromethyl)-4H-chromen-4-one] | > 20 | > 10 | 6
O=c1c(-c2cnn(Cc3ccc(F)cc3)c2)c(C(F)(F)F)oc2c(O)c(O)ccc12 [MSSM-RJD-MM-013, 3-(1-(4-fluorobenzyl)-1H-pyrazol-4-yl)-7,8-dihydroxy-2-(trifluoromethyl)-4H-chromen-4-one] | > 20 | > 30 | 7.2
O=c1c(-c2cnn(Cc3ccc(C(F)(F)F)cc3)c2)c(C(F)(F)F)oc2c(O)c(O)ccc12 [MSSM-RJD-MM-014, 7,8-dihydroxy-2-(trifluoromethyl)-3-(1-(4-(trifluoromethyl)benzyl)-1H-pyrazol-4-yl)-4H-chromen-4-one] | ~8 | ~10 | 5.4
O=c1c(-c2cnn(Cc3cccc(Cl)c3)c2)c(C(F)(F)F)oc2c(O)c(O)ccc12 [MSSM-RJD-MM-023, 3-(1-(3-chlorobenzyl)-1H-pyrazol-4-yl)-7,8-dihydroxy-2-(trifluoromethyl)-4H-chromen-4-one] | 10 to 20 | > 10 | 8.4
O=c1c(-c2cnn(Cc3cccc(F)c3)c2)c(C(F)(F)F)oc2c(O)c(O)ccc12 [MSSM-RJD-MM-024, 3-(1-(3-fluorobenzyl)-1H-pyrazol-4-yl)-7,8-dihydroxy-2-(trifluoromethyl)-4H-chromen-4-one] | 10 to 20 | > 10 | 7.9
Cc1cccc(Cn2cc(-c3c(C(F)(F)F)oc4c(O)c(O)ccc4c3=O)cn2)c1 [MSSM-RJD-MM-025, 7,8-dihydroxy-3-(1-(3-methylbenzyl)-1H-pyrazol-4-yl)-2-(trifluoromethyl)-4H-chromen-4-one] | 10 to 20 | > 10 | 3.9
O=c1c(-c2cnn(Cc3cc(C(F)(F)F)ccc3F)c2)c(C(F)(F)F)oc2c(O)c(O)ccc12 [MSSM-RJD-MM-026, 3-(1-(2-fluoro-5-(trifluoromethyl)benzyl)-1H-pyrazol-4-yl)-7,8-dihydroxy-2-(trifluoromethyl)-4H-chromen-4-one] | > 20 | > 10 | 6.5
O=c1c(-c2cnn(Cc3cc(C(F)(F)F)ccc3Cl)c2)c(C(F)(F)F)oc2c(O)c(O)ccc12 [MSSM-RJD-MM-027, 3-(1-(2-chloro-5-(trifluoromethyl)benzyl)-1H-pyrazol-4-yl)-7,8-dihydroxy-2-(trifluoromethyl)-4H-chromen-4-one] | 10 to 20 | > 10 | 5.6
O=c1c(-c2cnn(Cc3cc(F)ccc3C(F)(F)F)c2)c(C(F)(F)F)oc2c(O)c(O)ccc12 [MSSM-RJD-MM-028] | ~20 | ~10 | 7.3

Further lines, results first:

EC50 (cancer cells) [µM] | EC50 (E3 (CUL4)) [µM] | EC50 (E3 (CUL1)) [µM] | Structure (SMILES)
> 20 | > 10 | > 100 | COc1ccc2c(=O)c(-c3cnn(Cc4ccc(Cl)cc4)c3)c(C(F)(F)F)oc2c1OC [MSSM-RJD-MM-001, 3-(1-(4-chlorobenzyl)-1H-pyrazol-4-yl)-7,8-dimethoxy-2-(trifluoromethyl)-4H-chromen-4-one]
> 20 | > 10 | 96 | CCCCn1cc(-c2c(C(F)(F)F)oc3c(OC)c(OC)ccc3c2=O)cn1 [MSSM-RJD-MM-002, 3-(1-butyl-1H-pyrazol-4-yl)-7,8-dimethoxy-2-(trifluoromethyl)-4H-chromen-4-one]
> 20 | > 10 | > 100 | COc1ccc2c(=O)c(-c3cnn(C(C)C)c3)c(C(F)(F)F)oc2c1OC [MSSM-RJD-MM-003, 3-(1-isopropyl-1H-pyrazol-4-yl)-7,8-dimethoxy-2-(trifluoromethyl)-4H-chromen-4-one]
> 20 | > 10 | > 100 | CCCn1cc(-c2c(C(F)(F)F)oc3c(OC)c(OC)ccc3c2=O)cn1 [MSSM-RJD-MM-004]
> 20 | > 10 | > 100 | CCn1cc(-c2c(C(F)(F)F)oc3c(OC)c(OC)ccc3c2=O)cn1 [MSSM-RJD-MM-005]
> 20 | > 10 | > 100 | COc1ccc2c(=O)c(-c3cnn(Cc4ccc(F)cc4)c3)c(C(F)(F)F)oc2c1OC [MSSM-RJD-MM-010, 3-(1-(4-fluorobenzyl)-1H-pyrazol-4-yl)-7,8-dimethoxy-2-(trifluoromethyl)-4H-chromen-4-one]
> 20 | > 10 | > 100 | COc1ccc2c(=O)c(-c3cnn(Cc4ccc(C(F)(F)F)cc4)c3)c(C(F)(F)F)oc2c1OC [MSSM-RJD-MM-011, 7,8-dimethoxy-2-(trifluoromethyl)-3-(1-(4-(trifluoromethyl)benzyl)-1H-pyrazol-4-yl)-4H-chromen-4-one]
> 20 | > 10 | > 100 | COc1ccc2c(=O)c(-c3cnn(Cc4ccccc4Cl)c3)c(C(F)(F)F)oc2c1OC [MSSM-RJD-MM-012, 3-(1-(2-chlorobenzyl)-1H-pyrazol-4-yl)-7,8-dimethoxy-2-(trifluoromethyl)-4H-chromen-4-one]
> 20 | > 10 | 8.2 | O=c1c(-c2cnn(Cc3ccccc3Cl)c2)c(C(F)(F)F)oc2c(O)c(O)ccc12 [MSSM-RJD-MM-015, 3-(1-(2-chlorobenzyl)-1H-pyrazol-4-yl)-7,8-dihydroxy-2-(trifluoromethyl)-4H-chromen-4-one]
> 20 | > 10 | > 100 | COc1ccc2c(=O)c(-c3cnn(Cc4ccccc4F)c3)c(C(F)(F)F)oc2c1OC [MSSM-RJD-MM-016, 3-(1-(2-fluorobenzyl)-1H-pyrazol-4-yl)-7,8-dimethoxy-2-(trifluoromethyl)-4H-chromen-4-one]
> 20 | > 10 | 53 | COc1ccc2c(=O)c(-c3cnn(Cc4cccc(C(F)(F)F)c4Cl)c3)c(C(F)(F)F)oc2c1OC [MSSM-RJD-MM-020]
~20 | > 10 | 66 | COc1ccc2c(=O)c(-c3cnn(Cc4cc(F)ccc4C(F)(F)F)c3)c(C(F)(F)F)oc2c1OC [MSSM-RJD-MM-021, 3-(1-(5-fluoro-2-(trifluoromethyl)benzyl)-1H-pyrazol-4-yl)-7,8-dimethoxy-2-(trifluoromethyl)-4H-chromen-4-one]
> 20 | > 10 | 30 | O=c1c(-c2cnn(Cc3ccccc3F)c2)c(C(F)(F)F)oc2c(O)c(O)ccc12 [MSSM-RJD-MM-022, 3-(1-(2-fluorobenzyl)-1H-pyrazol-4-yl)-7,8-dihydroxy-2-(trifluoromethyl)-4H-chromen-4-one]
